Laboratory results as given in patent publication US8609699B2, “Oxotetrahydrofuran-2-yl-benzimidazole derivative” (MSD K.K., priority 2008, dated 2013).

Key:
[1] = target: T1, recombinant human liver GK (Homo sapiens, UniProt P35557); assay: Glucokinase-activating effect (Thio-NADH, G6PDH-coupled assay); type: biochemical; conditions: final glucose 2.5 mM, 30° C; for Emax(%): OD level of DMSO control = 100%
T1 construct: made in house; host or cells: E. coli
T1 sequence (P35557 1-466 isoform P35557-2): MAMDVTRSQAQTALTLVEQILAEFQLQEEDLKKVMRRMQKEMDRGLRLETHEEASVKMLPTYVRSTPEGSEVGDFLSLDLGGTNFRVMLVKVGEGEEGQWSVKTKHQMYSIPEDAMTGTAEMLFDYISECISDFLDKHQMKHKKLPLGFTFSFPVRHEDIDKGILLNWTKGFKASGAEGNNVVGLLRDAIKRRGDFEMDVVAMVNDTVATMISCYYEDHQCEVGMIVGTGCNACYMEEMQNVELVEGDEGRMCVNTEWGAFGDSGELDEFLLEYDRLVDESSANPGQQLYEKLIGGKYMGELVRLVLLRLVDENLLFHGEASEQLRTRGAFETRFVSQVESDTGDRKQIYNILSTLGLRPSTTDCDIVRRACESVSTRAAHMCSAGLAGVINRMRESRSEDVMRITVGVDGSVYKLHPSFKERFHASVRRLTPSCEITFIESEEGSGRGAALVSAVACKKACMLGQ
Source text: The excellent glucokinase-activating effect of the compounds of formula (I) may be determined by a method described in literature (for example, Diabetes, Vol. 45, pp. 1671-1677, 1996), or in accordance with it.
The glucokinase activity may be determined not by directly measuring glucose-6-phosphate but by measuring the level of Thio-NADH, which is produced when a reporter enzyme, glucose-6-phosphate dehydrogenase produces phosphogluconolactone from glucose-6-phosphate, and based on the level, the degree of glucokinase activation by the compound tested may be determined.
In this assay, used was a recombinant human liver GK, which was expressed by E. coli as a FLAG fusion protein therein and was purified by ANTIFLAG M2 AFFINITY GEL (Sigma).
Using a flat-bottomed 96-well plate, the assay was carried out at 30° C. 69 μl of an assay buffer (25 mM Hepes Buffer/pH=7.2, 2 mM MgCl2, 1 mM ATP, 0.5 mM TNAD, 1 mM dithiothreitol) was put into the plate, and 1 μl of a DMSO solution of the compound or DMSO alone as a control was added thereto. Next, 20 μl of an enzyme mixture (FLAG-GK, 20 U/ml G6PDH) cooled in ice was added to it, and 10 μl of a substrate, 25 mM glucose was added to it, and the reaction was initiated (final glucose concentration=2.5 mM).
After the start of the reaction, the increase in the absorbance at 405 nm was measured for 12 minutes at intervals of 30 seconds, and the increase for the first 5 minutes was used for assessing the compound tested. FLAG-GK was added so that the absorbance increase after 5 minutes in the presence of 1% DMSO could be from 0.04 to 0.06.
The OD level of the DMSO control was set as 100%; and the OD level of the test compound at different concentrations was determined. From the OD level at each concentration, Emax (%) and EC50 (μM) were computed and used as the index of the GK-activating potency of the compound.
The GK activating effect of the compounds of the invention was measured according to the method as above, and the results are shown in Table 5 below.

[2] = tested on: high-fat diet loaded mice; assay: Antihyperglycemic effect in high-fat diet loaded mice; type: in vivo, C57BL/6J mice; conditions: oral 10 mg/kg in 0.5% methyl cellulose; 1 hour after administration; free-feeding mice
Method: Six-week-old male C57BL/6J mice were fed a high-fat diet (RESEARCH DIETS, D12492) for ≧9 weeks to produce the high-fat diet loaded mice (>160 mg/dl).
The slight tail tips of the high-fat diet loaded mice (18-21 weeks old, n=6) under the conditions of free-feeding and water intake were cut with scissors to collect their blood. The collected blood was used to determine blood glucose levels prior to the administration of a compound by a blood glucose level measuring apparatus (One Touch Ultra (Johnson. Johnson)), followed by oral administration of the compound suspended in a 0.5% methyl cellulose solution at 10 mg/kg, while a 0.5% methyl cellulose solution was orally administered to the control group. The blood glucose levels were determined using the blood glucose level measuring apparatus every 1 hour after the administration of the test drug solutions.
The values of the decreases in blood glucose (differences between the control group and the compound-treated group) at 1 hour after administration were shown in Table 7 described below.
The values of the decreases in blood glucose (differences between the control group and the compound-treated group) at 1 hour after administration of the compounds according to Example 1 and Example 7 were shown in Table 7 described below.

male beagles = assay: Antihyperglycemic effect in fasted beagles (plasma glucose AUC); type: in vivo; conditions: compared to control group up to 4 hours after administration, fasted overnight
Method: From the cephalic vein of male beagles fasted overnight (9.4-14.4 kg body weight), blood was collected prior to administration, followed by oral administration of the test drug suspended in a 0.5% methyl cellulose solution (0.3 and 1 mg/kg), while a 0.5% methyl cellulose solution was orally administered to the control group. The blood was collected at 0.5, 1, 2, and 4 hours after the administration of the test drug. Plasma was separated from the obtained blood to determine a plasma glucose level using Determina-GL-E (Kyowa Medics).

[3] = racemates, comparison with WO2007/007910

Q: For `CN(C)C(=O)c1ccc(Oc2cc3nc(-c4ccccn4)[nH]c3cc2C2CCC(=O)O2)cn1` (single isomer, unassigned) [Example 4 A, N,N-dimethyl-5-{[6-(5-oxotetrahydrofuran-2-yl)-2-pyridin-2-yl-1H-benzimidazol-5-yl]oxy}pyridine-2-carboxamide], which “Emax(%)” value ([1]; separated enantiomers, listed as 4 A) is on record?
A: 432%

Q: What about the EC50 ([1]; separated enantiomers) of the same compound?
A: 15900 nM

Q: With `CN(C)C(=O)Cc1ccc(Oc2cc3nc(-c4ccccn4)[nH]c3cc2C2CCC(=O)O2)cc1` (racemic) [Example 7 Racemate, N,N-dimethyl-2-(4-{[6-(5-oxotetrahydrofuran-2-yl)-2-pyridin-2-yl-1H-benzimidazol-5-yl]oxy}phenyl)acetamide] as the compound, how does the EC50 [1, 3] read?
A: 470 nM

Q: Which results are given for `CN(C)C(=O)c1ccc(Oc2cc3nc(-c4ccccn4)[nH]c3cc2C2CCC(=O)O2)cn1` (single isomer, unassigned) [Example 4 B, N,N-dimethyl-5-{[6-(5-oxotetrahydrofuran-2-yl)-2-pyridin-2-yl-1H-benzimidazol-5-yl]oxy}pyridine-2-carboxamide]?
A: Emax(%) ([1]; separated enantiomers, listed as 4 B): 668%; EC50 ([1]; separated enantiomers): 280 nM

Q: With `CCNC(=O)c1ccc(Oc2cc3nc(-c4ccccn4)[nH]c3cc2C2CCC(=O)O2)cn1` (single isomer, unassigned) [Example 6 A, N-ethyl-5-{[6-(5-oxotetrahydrofuran-2-yl)-2-pyridin-2-yl-1H-benzimidazol-5-yl]oxy}pyridine-2-carboxamide] as the compound, how does the “Emax(%)” value ([1]; separated enantiomers, listed as 6 A) read?
A: 553%

Q: What about the EC50 ([1]; separated enantiomers) of the same compound?
A: 1830 nM

Q: How did the “Emax(%)” value ([1]; separated enantiomers, listed as 6 B) turn out when `CCNC(=O)c1ccc(Oc2cc3nc(-c4ccccn4)[nH]c3cc2C2CCC(=O)O2)cn1` (single isomer, unassigned) [Example 6 B, N-ethyl-5-{[6-(5-oxotetrahydrofuran-2-yl)-2-pyridin-2-yl-1H-benzimidazol-5-yl]oxy}pyridine-2-carboxamide] was run?
A: 781%

Q: And the EC50 ([1]; separated enantiomers)?
A: 240 nM

Q: With `O=C1CCC(c2cc3[nH]c(-c4ccccn4)nc3cc2Oc2ccc(C(=O)N3CCC3)nc2)O1` (single isomer, unassigned) [Example 2 A, 5-(5-{[6-(azetidin-1-ylcarbonyl)pyridin-3-yl)oxy}-2-pyridin-2-yl-1H-benzimidazol-6-yl)dihydrofuran-2(3H)-one] as the compound, how does the “Emax(%)” value ([1]; separated enantiomers, listed as 2 A) read?
A: 476%

Q: What about the EC50 ([1]; separated enantiomers) of the same compound?
A: 15100 nM

Q: Which “Emax(%)” value ([1]; separated enantiomers, listed as 11 B) does the source give for `COCc1ccc(Oc2cc3nc(-c4ccccn4)[nH]c3cc2C2CCC(=O)O2)cn1` (single isomer, unassigned) [Example 11 B, 5-(5-{[6-(methoxymethyl)pyridin-3-yl]oxy}-2-pyridin-2-yl-1H-benzimidazol-6-yl)dihydrofuran-2(3H)-one] here?
A: 788%

Q: And the EC50 ([1]; separated enantiomers)?
A: 270 nM

Q: For `COCc1ccc(Oc2cc3nc(-c4ccccn4)[nH]c3cc2C2CCC(=O)O2)cn1` (single isomer, unassigned) [Example 11 A, 5-(5-{[6-(methoxymethyl)pyridin-3-yl]oxy}-2-pyridin-2-yl-1H-benzimidazol-6-yl)dihydrofuran-2(3H)-one], which “Emax(%)” value ([1]; separated enantiomers, listed as 11 A) is on record?
A: 412%

Q: And the EC50 ([1]; separated enantiomers)?
A: 16600 nM

Q: Which results are given for `O=C1CCC(c2cc3[nH]c(-c4ccccn4)nc3cc2Oc2ccc(C(=O)N3CCC3)nc2)O1` (single isomer, unassigned) [Example 2 B, 5-(5-{[6-(azetidin-1-ylcarbonyl)pyridin-3-yl)oxy}-2-pyridin-2-yl-1H-benzimidazol-6-yl)dihydrofuran-2(3H)-one]?
A: Emax(%) ([1]; separated enantiomers, listed as 2 B): 704%; EC50 ([1]; separated enantiomers): 310 nM

Q: `O=C1CCC(c2cc3[nH]c(-c4ccccn4)nc3cc2Oc2ccc(C(=O)N3CCC3)cc2)O1` (racemic) [Example 1 Racemate, 5-{5-[4-(azetidin-1-ylcarbonyl)phenoxy]-2-pyridin-2-yl-1H-benzimidazol-6-yl}dihydrofuran-2(3H)-one] was tested. Which EC50 [1, 3] did it give?
A: 530 nM

Q: For `CN(C)C(=O)Cc1ccc(Oc2cc3nc(-c4ccccn4)[nH]c3cc2C2CCC(=O)O2)cc1` (single isomer, unassigned) [Example 7 A, N,N-dimethyl-2-(4-{[6-(5-oxotetrahydrofuran-2-yl)-2-pyridin-2-yl-1H-benzimidazol-5-yl]oxy}phenyl)acetamide], which “Emax(%)” value ([1]; separated enantiomers, listed as 7 A) is on record?
A: 775%

Q: What about the EC50 ([1]; separated enantiomers) of the same compound?
A: 2470 nM

Q: `O=C1CCC(c2cc3[nH]c(-c4ccccn4)nc3cc2Oc2ccc(C(=O)N3CCC3)cc2)O1` (single isomer, unassigned) [Example 1 A, 5-{5-[4-(azetidin-1-ylcarbonyl)phenoxy]-2-pyridin-2-yl-1H-benzimidazol-6-yl}dihydrofuran-2(3H)-one] was tested. Which “Emax(%)” value ([1]; separated enantiomers, listed as 1 A) did it give?
A: 541%

Q: What about the EC50 ([1]; separated enantiomers) of the same compound?
A: 1910 nM

Q: Which “Difference from control group (Δmg/dl), decrease in blood glucose” value [2] does the source give for `CN(C)C(=O)Cc1ccc(Oc2cc3nc(-c4ccccn4)[nH]c3cc2C2CCC(=O)O2)cc1` (single isomer, unassigned) [Example 7 B, N,N-dimethyl-2-(4-{[6-(5-oxotetrahydrofuran-2-yl)-2-pyridin-2-yl-1H-benzimidazol-5-yl]oxy}phenyl)acetamide] here?
A: −146 Δmg/dl

Q: And the “Emax(%)” value ([1]; separated enantiomers, listed as 7 B)?
A: 972%

Q: And the EC50 ([1]; separated enantiomers)?
A: 290 nM

Q: And the “Rate of decrease (%) in plasma glucose level AUC” value (“Rate of decrease (%)” for short) (male beagles; oral 0.3 mg/kg)?
A: 12.4%

Q: What about the “Rate of decrease (%)” value (male beagles; oral 1.0 mg/kg) of the same compound?
A: 15.6%

Q: With `O=C1CCC(c2cc3[nH]c(-c4ccccn4)nc3cc2Oc2ccc(C(=O)N3CCC3)cc2)O1` (single isomer, unassigned) [Example 1 B, 5-{5-[4-(azetidin-1-ylcarbonyl)phenoxy]-2-pyridin-2-yl-1H-benzimidazol-6-yl}dihydrofuran-2(3H)-one] as the compound, how does the “Difference from control group (Δmg/dl), decrease in blood glucose” value [2] read?
A: −132 Δmg/dl

Q: And the “Emax(%)” value ([1]; separated enantiomers, listed as 1 B)?
A: 588%

Q: And the EC50 ([1]; separated enantiomers)?
A: 240 nM

Q: What about the “Rate of decrease (%)” value (male beagles; oral 0.3 mg/kg) of the same compound?
A: 16.2%

Q: And the “Rate of decrease (%)” value (male beagles; oral 1.0 mg/kg)?
A: 23.4%

Q: With `COCc1ccc(Oc2cc3nc(-c4ccccn4)[nH]c3cc2C2CCC(=O)O2)cn1` (racemic) [Example 11 Racemate, 5-(5-{[6-(methoxymethyl)pyridin-3-yl]oxy}-2-pyridin-2-yl-1H-benzimidazol-6-yl)dihydrofuran-2(3H)-one] as the compound, how does the EC50 [1, 3] read?
A: 490 nM
